What all share (format): cell-based
For experiment [1], the system named is microfilariae of Dirofilaria immitis. The experiment in a line: Dirofilaria immitis, Microfilaria (DiMf) In Vitro Assay. As to conditions: for minimal effective concentration: Dirofilaria immitis, 72 h, read-out: DiMf MED, Minimum Effective Dose, D. immitis microfilariae motility, in vitro.
For experiment [2], the system named is D. immitis L4 larvae. As to the kind of experiment: Dirofilaria immitis, L4 Stage (DiL4) In Vitro Assay. The note with it: for minimal effective concentration: Dirofilaria immitis, 72 h, read-out: DiL4 MED, Minimum Effective Dose, D. immitis L4 larvae motility, in vitro; for DiMf/DiL4: larval stage selectivity, ratio of DiMf MED to DiL4 MED.
The subject of experiment [3] is third stage larvae of Haemonchus contortus. As to the kind of experiment: Haemonchus contortus, Larvae Stage 3 (HcL3) In Vitro Assay. The note with it: for minimal effective concentration: Haemonchus contortus, 96 h.
Where [4] appears, read: read-out: HcL3 MED, Haemonchus contortus third stage larvae in vitro, class mark appended to the Ex # in Table 3.
[5] abbreviates: read-out: HcL3 MED, Minimum Effective Dose, H. contortus third stage larvae, approximately 96 hours.

The values that follow come from patent publication US11771738B2 (Zoetis Services LLC, priority 2018, dated 2023).

Read-outs that look alike come from different tables or passages of the source. Marks after values point to notes of the source that are not given here. Bounds are passed on as bounds.

As for `CC(C)C[C@H]1C(=O)O[C@H](Cc2ccc(Cc3ccoc3)cc2)C(=O)N(C)[C@@H](CC(C)C)C(=O)O[C@H](C)C(=O)N(C)[C@@H](CC(C)C)C(=O)O[C@H](Cc2ccc(Cc3ccoc3)cc2)C(=O)N(C)[C@@H](CC(C)C)C(=O)O[C@H](C)C(=O)N1C` [Example 3-173, (3S,6R,9S,12R,15S,18R,21S,24R)-6,18-bis(4-(furan-3-ylmethyl)benzyl)-3,9,15,21-tetraisobutyl-4,10,12,16,22,24-hexamethyl-1,7,13,19-tetraoxa-4,10,16,22-tetraazacyclotetracosan-2,5,8,11,14,17,20,23-octaone], the minimal effective concentration in experiment [1] was 0.003 µM; in experiment [2], less than 0.0001 µM; in experiment [3] (setting [4]), 1 to 3.3 µM; in experiment [3] (setting [5]) it was 3.3 µM. In addition, the DiMf/DiL4 in experiment [2] is greater than 30.
The corresponding values for `CC(C)C[C@H]1C(=O)O[C@H](Cc2ccc(Cc3cccnc3N(C)C)cc2)C(=O)N(C)[C@@H](CC(C)C)C(=O)O[C@H](C)C(=O)N(C)[C@@H](CC(C)C)C(=O)O[C@H](Cc2ccc(Cc3cccnc3N(C)C)cc2)C(=O)N(C)[C@@H](CC(C)C)C(=O)O[C@H](C)C(=O)N1C` [Example 3-176, (3S,6R,9S,12R,15S,18R,21S,24R)-6,18-bis(4-((2-(dimethylamino)pyridin-3-yl)methyl)benzyl)-3,9,15,21-tetraisobutyl-4,10,12,16,22,24-hexamethyl-1,7,13,19-tetraoxa-4,10,16,22-tetraazacyclotetracosan-2,5,8,11,14,17,20,23-octaone] are 0.004 µM, 0.0003 µM, 1 to 3.3 µM, 1.2 µM and 13.3.
`CC(C)C[C@H]1C(=O)O[C@H](Cc2ccc(Cc3cnc(N4CCOCC4)nc3)cc2)C(=O)N(C)[C@@H](CC(C)C)C(=O)O[C@H](C)C(=O)N(C)[C@@H](CC(C)C)C(=O)O[C@H](Cc2ccc(Cc3cnc(N4CCOCC4)nc3)cc2)C(=O)N(C)[C@@H](CC(C)C)C(=O)O[C@H](C)C(=O)N1C` [Example 3-178, (3S,6R,9S,12R,15S,18R,21S,24R)-3,9,15,21-tetraisobutyl-4,6,10,16,18,22-hexamethyl-12,24-bis(4-((2-morpholinopyrimidin-5-yl)methyl)benzyl)-1,7,13,19-tetraoxa-4,10,16,22-tetraazacyclotetracosan-2,5,8,11,14,17,20,23-octaone]: the results for the minimal effective concentration in experiment [1], in experiment [2] and in experiment [3] (setting [5]) were 0.001 µM, 0.001 µM and greater than 100 µM, respectively. The DiMf/DiL4 in experiment [2] is given as 1.
Consider `COc1nccnc1Cc1ccc(C[C@H]2OC(=O)[C@H](CC(C)C)N(C)C(=O)[C@@H](C)OC(=O)[C@H](CC(C)C)N(C)C(=O)[C@@H](Cc3ccc(Cc4nccnc4OC)cc3)OC(=O)[C@H](CC(C)C)N(C)C(=O)[C@@H](C)OC(=O)[C@H](CC(C)C)N(C)C2=O)cc1` [Example 3-193, (3S,6R,9S,12R,15S,18R,21S,24R)-3,9,15,21-tetraisobutyl-6,18-bis(4-((3-methoxypyrazin-2-yl)methyl)benzyl)-4,10,12,16,22,24-hexamethyl-1,7,13,19-tetraoxa-4,10,16,22-tetraazacyclotetracosan-2,5,8,11,14,17,20,23-octaone], for which the minimal effective concentration was 0.002 µM in experiment [1]; 0.0004 µM in experiment [2]; less than 1 µM in experiment [3] (setting [4]); 1 µM in experiment [3] (setting [5]); no more than 1 µM in experiment [3] (read-out: HcL3 MED, approximately 96 hours incubation, multiple-resistant field isolate). Also, the DiMf/DiL4 in experiment [2] turned out to be 5.
In the case of `CC(C)C[C@H]1C(=O)O[C@H](Cc2ccc(Cc3cncc(F)c3)cc2)C(=O)N(C)[C@@H](CC(C)C)C(=O)O[C@H](C)C(=O)N(C)[C@@H](CC(C)C)C(=O)O[C@H](Cc2ccc(Cc3cncc(F)c3)cc2)C(=O)N(C)[C@@H](CC(C)C)C(=O)O[C@H](C)C(=O)N1C` [Example 3-194, (3S,6R,9S,12R,15S,18R,21S,24R)-6,18-bis(4-((5-fluoropyridin-3-yl)methyl)benzyl)-3,9,15,21-tetraisobutyl-4,10,12,16,22,24-hexamethyl-1,7,13,19-tetraoxa-4,10,16,22-tetraazacyclotetracosan-2,5,8,11,14,17,20,23-octaone], the minimal effective concentration in experiment [1] is 0.001 µM; in experiment [2], 0.001 µM; in experiment [3] (setting [5]), greater than 100 µM. For the same compound, the DiMf/DiL4 in experiment [2] was 1.
In the case of `COc1ccc(C(C)c2ccc(C[C@H]3OC(=O)[C@H](CC(C)C)N(C)C(=O)[C@@H](C)OC(=O)[C@H](CC(C)C)N(C)C(=O)[C@@H](Cc4ccc(C(C)c5ccc(OC)nc5)cc4)OC(=O)[C@H](CC(C)C)N(C)C(=O)[C@@H](C)OC(=O)[C@H](CC(C)C)N(C)C3=O)cc2)cn1` (stereo partly drawn) [Example 3-207, (3S,6R,9S,12R,15S,18R,21S,24R)-3,9,15,21-tetraisobutyl-6,18-bis(4-(1-(6-methoxypyridin-3-yl)ethyl)benzyl)-4,10,12,16,22,24-hexamethyl-1,7,13,19-tetraoxa-4,10,16,22-tetraazacyclotetracosan-2,5,8,11,14,17,20,23-octaone], the minimal effective concentration is 0.05 µM in experiment [1], 0.001 µM in experiment [2] and greater than 100 µM in experiment [3] (setting [5]). In addition, the DiMf/DiL4 in experiment [2] amounted to 50.
Take `COc1nc(C)c(Cc2ccc(C[C@H]3OC(=O)[C@H](CC(C)C)N(C)C(=O)[C@@H](C)OC(=O)[C@H](CC(C)C)N(C)C(=O)[C@@H](Cc4ccc(Cc5sc(OC)nc5C)cc4)OC(=O)[C@H](CC(C)C)N(C)C(=O)[C@@H](C)OC(=O)[C@H](CC(C)C)N(C)C3=O)cc2)s1` [Example 3-209, (3S,6R,9S,12R,15S,18R,21S,24R)-3,9,15,21-tetraisobutyl-6,18-bis(4-((2-methoxy-4-methylthiazol-5-yl)methyl)benzyl)-4,10,12,16,22,24-hexamethyl-1,7,13,19-tetraoxa-4,10,16,22-tetraazacyclotetracosan-2,5,8,11,14,17,20,23-octaone]: the figures for the minimal effective concentration in experiment [1], in experiment [2] and in experiment [3] (setting [5]) were 0.01 µM, 0.0005 µM and greater than 100 µM, respectively. Also, the DiMf/DiL4 in experiment [2] is 20.
Consider `COc1cccnc1Cc1ccc(C[C@H]2OC(=O)[C@H](CC(C)C)N(C)C(=O)[C@@H](C)OC(=O)[C@H](CC(C)C)N(C)C(=O)[C@@H](Cc3ccc(Cc4ncccc4OC)cc3)OC(=O)[C@H](CC(C)C)N(C)C(=O)[C@@H](C)OC(=O)[C@H](CC(C)C)N(C)C2=O)cc1` [Example 3-215], for which, in experiment [1] (Minimum Effective Dose, D. immitis microfilariae motility, in vitro), the “DiMf MED” value is recorded as 0.7 nM. Also, the “DiL4 MED” value in experiment [2] (Minimum Effective Dose, D. immitis L4 larvae motility, in vitro) is listed as less than 0.2 nM. Moreover, in experiment [2], the DiMf/DiL4 is on record as greater than 3.5. Further, the “HcL3 MED” value in experiment [3] (Haemonchus contortus third stage larvae in vitro, class mark appended to the Ex # in Table 3) was 3-215* (Examples with an asterisk (*) have HcL3 MED values≤1 μM); in experiment [3] (Minimum Effective Dose, H. contortus third stage larvae, approximately 96 hours), 1 µM.
